Measurements reported in US10835719B2, “Drug releasing coatings for medical devices” (Lutonix, Inc., priority 2006, dated 2020).

Experiments:
[1] = cited from earlier work
[2] = Stability of additive with paclitaxel under ethylene oxide sterilization, heating and aging; format: physicochemical; conditions: additive formulated with paclitaxel; reacted with paclitaxel
[3] = target: albumin (Homo sapiens, UniProt P02768); conditions: cited from earlier work
Chain of albumin (P02768 25-609): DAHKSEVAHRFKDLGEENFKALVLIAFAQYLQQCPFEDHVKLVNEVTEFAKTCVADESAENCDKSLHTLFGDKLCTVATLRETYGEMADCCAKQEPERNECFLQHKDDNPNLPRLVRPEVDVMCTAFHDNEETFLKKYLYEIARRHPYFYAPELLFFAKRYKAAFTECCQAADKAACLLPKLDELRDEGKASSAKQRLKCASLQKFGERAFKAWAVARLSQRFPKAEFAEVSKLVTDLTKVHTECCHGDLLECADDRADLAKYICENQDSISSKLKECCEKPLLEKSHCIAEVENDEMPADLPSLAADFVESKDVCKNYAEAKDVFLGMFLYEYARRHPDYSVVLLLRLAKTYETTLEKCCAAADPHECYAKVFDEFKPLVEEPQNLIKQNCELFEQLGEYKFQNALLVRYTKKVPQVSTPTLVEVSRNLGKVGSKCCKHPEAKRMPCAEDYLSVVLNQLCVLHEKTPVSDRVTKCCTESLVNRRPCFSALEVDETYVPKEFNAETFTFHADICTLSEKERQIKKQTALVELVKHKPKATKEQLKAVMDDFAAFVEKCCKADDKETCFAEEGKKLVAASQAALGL

stability under ethylene oxide sterilization, heating, and aging process [2] | Molecule | also measured
 | PEG-20 sorbitan monolaurate [Tween 20] | log P [1]: about 3.0
not stable | O=C1O[C@H]([C@@H](O)CO)C(O)=C1O [ascorbic acid] | 
 | CO[C@H]1C[C@@H]2CC[C@@H](C)[C@@](O)(O2)C(=O)C(=O)N2CCCC[C@H]2C(=O)O[C@H]([C@H](C)C[C@@H]2CC[C@@H](O)[C@H](OC)C2)CC(=O)[C@H](C)/C=C(\C)[C@@H](O)[C@@H](OC)C(=O)[C@H](C)C[C@H](C)/C=C/C=C/C=C/1C [rapamycin] | protein bound [3]: 92%
not stable | O=C(O)c1cc(O)ccc1O [gentisic acid] | 
 | COc1ccc(O)c(C(C)(C)C)c1 [Butylated hydroxyanisole (BHA), Butylated hydroxyanisole] | log P [1]: 1.31
not stable | OCCNCCO [diethanolamine] | 

Molecule | stability under ethylene oxide sterilization, heating, and aging process [2] | also measured
O=C(O)c1ccccc1 [benzoic acid] | not stable | 
